Reference: PubChem BioAssay (NCI)
Where “and” joins values, the source holds several entries; their conditions need not be identical. Equal values may be shown once.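 Exposure lasted 48 hours, with cells grown in 96-well plates and compounds tested at five concentrations. GI50 is the concentration that inhibits growth by half. The concentration for full growth arrest is given as TGI.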

Assays:
Assay in all cases: inhibition of tumour cell growth, NCI panel, 48 h
[1] = system: MDA-MB-231 breast
[2] = system: MDA-MB-435
[3] = system: PC-3 prostate
[4] = system: T-47D breast
[5] = system: MDA-N
[6] = system: DMS 273 small cell lung
[7] = system: LXFL 529 NSCLC
[8] = system: XF 498 CNS

Compound	GI50 [1]	TGI [1]	GI50 [2]	TGI [2]	GI50 [3]	TGI [3] [µM]	GI50 [4]	TGI [4]	TGI [5] [µM]	TGI [6] [µM]	TGI [7]	TGI [8] [µM]
Cc1cccc2c(C3=C(c4cn(C)c5ccccc45)C(=O)NC3=O)cn(C)c12	> 19.6 µM	> 25 µM	1.24 µM	> 25 µM	18.9 µM	> 25	> 20 µM	> 25 µM				
Cc1cc(F)c(C(=O)Nc2cccc(-c3nncn3C(C)C)n2)cc1-n1cnc(C2CC2)c1	18.1 µM	91.5 µM	11.4 µM	> 100 µM	16.6 µM	92.4	2.01 µM	9.95 µM				
C=CC(=O)N[C@@H]1CN(c2nc(Nc3cn(C)nc3OC)c3ncn(C)c3n2)C[C@H]1F	23.8 µM	> 88.2 µM	15.8 µM	38.5 µM	60.1 µM	> 100	1.74 µM	> 100 µM				
O=C(O)C1C2C=CC(O2)C1C(=O)NCc1cccnc1 (stereo not given)		> 100 µM		> 100 µM		> 100		> 100 µM	> 100			
CC(C)N(C(=O)C12C3C4C1C1C2C3C41C(=O)C(C)(C)C)C(C)C (stereo not given)										> 100	> 100 µM	> 100
CCOC(=O)/C(=C/CC/C(C)=C/CC/C(C)=C/CCc1ccoc1)CC(=O)N1CCCCC1	1.96 µM	4.17 µM	3.05 µM	10.9 µM	3.1 µM	17.9	2.37 µM	8.65 µM				
C[C@@H](C1CC[C@H]2[C@@H]3[C@@H]4O[C@@H]4[C@@]4(O)CC=CC(=O)[C@]4(C)[C@H]3C[C@H](O)[C@]12C)[C@H]1C[C@]2(C)O[C@]2(C)C(=O)O1 (stereo not given in full)		> 100 µM		> 100 µM		> 100		> 100 µM	> 100			
C[C@@H](O)[C@@H](C)Oc1nc(Nc2ccc(S(=N)(=O)C3CC3)cc2)ncc1C(F)(F)F (stereo not given in full)	0.0336 µM	> 100 µM	0.0335 µM	1.22 µM	0.0401 µM	0.443	0.0386 µM	6.62 µM				
C/C(NNC(=O)c1ccccc1O)=C1\C=Nc2ccccc2S1										> 100	> 100 µM	> 100
Cc1cc2c(cc1Cl)SC(N(c1ccccc1Cl)S(=O)(=O)c1ccc(Br)s1)=NS2(=O)=O	18.5 µM	61.8 µM	13.2 µM	31.6 µM	12.5 µM	29.7	4.95 µM	23 µM				
N#Cc1ncc(C(Cl)Cl)nc1Cl		3.17 µM		3.9 µM		3.62		3.78 µM	3.07			
C/C=C1/CN2CCC34C(=C(C(=O)OC)C1CC23)Nc1ccc(O)cc14 (stereo not given)		> 100 µM		> 100 µM		> 100		> 100 µM	> 100			
Cc1ccc2nc(NC(=O)C(=O)C(C(=O)c3ccc4ccccc4c3)C3OC(=O)c4ccccc43)sc2c1 (stereo not given)											19.2 µM	
O=C(Nc1ccc(OS(=O)(=O)c2ccc(F)cc2)cc1)C12CC3CC(CC(C3)C1)C2	4.58 µM	52.7 µM	> 27.9 µM	> 100 µM	0.647 µM	> 100	0.831 µM	> 100 µM				
CC1CC(C[N+](=O)[O-])CC2(C1)OCCO2 (stereo not given)										> 100	> 100 µM	
CC(=O)NNc1nc(C)c(C(=O)NNC(=O)C(=O)Nc2ccc(Cl)c([N+](=O)[O-])c2)s1											> 100 µM	> 100
Cc1ccc2c(c1)[n+](=O)c(C(=O)c1cccs1)c(C(F)(F)F)n2[O-]	1.01 µM and 1.08 µM	2.8 µM and 6.37 µM	1.37 µM and 1.22 µM	5.41 µM and 9.08 µM	0.528 µM and 1.38 µM		1.55 µM and 0.183 µM	9.38 µM and 7.9 µM				
COc1ccc(C(=O)/C=C/c2sc(Cl)nc2Cl)cc1	1.33 µM	4.64 µM	3.11 µM	11.4 µM	2.83 µM	11.6	2.93 µM	9.23 µM				
O=C(COc1ccc(/C=C2\Oc3ccc4ccccc4c3C2=O)cc1)c1ccc([N+](=O)[O-])cc1	19 µM	71.9 µM	12.2 µM	29.1 µM	9.36 µM	21.3	2.85 µM	23.8 µM				
Nc1nc(N)c2c(n1)NC(c1sc(Cl)nc1Cl)CC(c1ccccc1)=N2 (stereo not given)	3.86 µM	16.5 µM	1.47 µM	10.2 µM	5.89 µM	24	3.35 µM	22.1 µM				

Compound	GI50 [1]	TGI [1]	GI50 [2]	TGI [2]	GI50 [3]	TGI [3] [µM]	GI50 [4]	TGI [4]	TGI [5] [µM]	TGI [6] [µM]	TGI [7]	TGI [8] [µM]
Nc1nc(=O)n(C2CC(O)C(CO)O2)cc1F (stereo not given)	10.7 µM	> 100 µM	> 100 µM	> 100 µM	1.47 µM	> 100	> 100 µM	> 100 µM				
CCOC(=O)C1(CC(=O)O)CCCC1=O (stereo not given)		> 100 µM		> 100 µM		> 100		> 100 µM	> 100			
CN(C)c1ccc(C(=S)c2ccc(N(C)C)cc2)cc1	8 µM	> 100 µM			22.5 µM	> 100	6.34 µM	> 100 µM				
CCCCCC/C=C/C#CCCCCCCCC(=O)O		> 100 µM		> 100 µM		> 100		> 100 µM	> 100			
CC/C=C\C[C@H]1C/C=C2/C(=O)C=C[C@H]2C/C=C\CCCC(=O)O1	3.23 µM	14.8 µM	1.66 µM	6.04 µM	3.13 µM	12.1						
C[C@@H]1CC[C@H]2[C@@H](C)C(O)O[C@@H]3O[C@]4(C)CC[C@@H]1[C@]32OO4 (stereo not given in full)	6.16 µM	> 56.8 µM	0.361 µM	10.8 µM	0.0662 µM	> 43.3	0.285 µM					
OCC#CCOCC#Cc1ccccc1C#CCOCC#CCO	30.2 µM	83.4 µM	53.3 µM	> 100 µM	22.5 µM	> 100						
CNC(=O)c1cc(Oc2ccc3nc(NC(=O)Nc4ccc(CN5CCOCC5)c(C(F)(F)F)c4)sc3c2)ccn1	2.14 µM	5.8 µM	1.83 µM	4.38 µM	2.04 µM	6.22	1.53 µM	6.82 µM				
Cc1c2cnccc2c(C)c2c1c1cc(O)ccc1n2C(C)C	1.51 µM	7.58 µM	1.04 µM	2.29 µM	1.12 µM	3.71	1.98 µM	6.27 µM				
C[C@@H](Nc1nc(N[C@H](C)C(F)(F)F)nc(-c2cccc(Cl)n2)n1)C(F)(F)F	26.8 µM	> 100 µM	> 100 µM	> 100 µM	45.4 µM	> 100	41.8 µM	> 100 µM				
O=C1/C(=C/c2cccnc2)SC(=S)N1Cc1ccco1		> 51.1 µM		5.54 µM		> 36.6		64.6 µM	6.29			
COc1ccc(-c2nn(-c3cccc(Cl)c3)cc2/C=C2\NC(=S)N(c3ccc(Cl)cc3)C2=O)cc1	3.33 µM	11.5 µM	7.38 µM	> 25 µM	5.37 µM	21.6	3.61 µM	9.7 µM				
COc1ccc(-n2cc(-c3cc(OC)c(OC)c(OC)c3)nc2SCc2ccc(Cl)cc2)cc1OC	> 100 µM	> 100 µM	> 100 µM	> 100 µM	35.3 µM	> 100	15.1 µM	> 100 µM				
C/C(=N\Nc1ccccc1)c1sc(-c2nc(C)c(/C(C)=N/Nc3ccccc3)s2)nc1C										> 21.1	> 82 µM	> 100
O=C(NC1CCN(Cc2ccccc2)CC1)c1cc(-c2cccnc2)nc2ccc(Cl)cc12	2.47 µM	13.1 µM	9.96 µM	> 100 µM	6.16 µM	> 100	3.7 µM	53.1 µM				
Oc1ccc2ccccc2c1CCc1c(O)ccc2ccccc12		27.5 µM		25.4 µM		26.9		12.5 µM	27.6			
O=C1C=CC2(CCCCCCC2=O)CC1 (stereo not given)										> 100	> 100 µM	
CC(=O)OC1C[C@H]2C(OC(=O)c3ccccc3)C3C4(OC(C)=O)COC4C[C@H](OC(C)=O)[C@@]3(C)C(OC(C)=O)[C@H](OC(C)=O)C(=C1C)C2(C)C (stereo not given in full)										> 100	> 100 µM	63.8
COc1ccccc1-n1cnc(N)c1C(=O)c1cc(OC)c(OC)c(OC)c1	5.93 µM	> 100 µM	1.07 µM	3.81 µM	3.51 µM	> 100						
O/N=C1/CCCC/C1=C/C=C/c1ccccc1											> 100 µM	

Compound	GI50 [1]	TGI [1]	GI50 [2]	TGI [2]	GI50 [3]	TGI [3] [µM]	GI50 [4]	TGI [4]	TGI [5] [µM]	TGI [6] [µM]	TGI [7]	TGI [8] [µM]
O=C1Cc2c(-c3ccccc3)cc(-c3ccccc3)nc2-c2ccccc2N1		17.2 µM		> 100 µM		42.9		38.4 µM				
O=S(=O)(C1=CC(S(=O)(=O)c2ccccc2)COC1)c1ccccc1 (stereo not given)										> 100	> 100 µM	> 100
O=CC(OC(=O)c1ccccc1)C(OC(=O)c1ccccc1)C(COC(c1ccccc1)(c1ccccc1)c1ccccc1)OC(=O)c1ccccc1 (stereo not given)	21.6 µM	> 100 µM	12.8 µM	46.7 µM	9.64 µM	24.7	4.65 µM	22.7 µM				
CCc1cccc(C(C)C)c1NC(=O)CC1Sc2ccccc2NC1=O (stereo not given)										> 100	> 100 µM	> 100
COc1ccc2[nH]c(Cl)c(/C=C3/C(=O)Nc4ccccc43)c2c1	< 0.0477 µM	2.95 µM	0.251 µM	0.708 µM	0.676 µM	6.84	5.4 µM	84.5 µM				
NC(Cc1ccccc1)C(=O)OCN1C(=O)C2C3C=CC(C2C1=O)C1C2C(=O)N(COC(=O)C(N)Cc4ccccc4)C(=O)C2C31 (stereo not given)											39.7 µM and 37.9 µM	71.7
Nc1n[n+]([O-])c2cc([N+](=O)[O-])ccc2[n+]1[O-]		44.7 µM		3.26 µM		> 100		18.6 µM	4.93			
CN1CCN(CCCOc2cccc3nc(Nc4cc(Cl)cc(Cl)c4)ccc23)CC1	1.57 µM	3.12 µM	1.68 µM	3.2 µM	1.76 µM	3.29	1.79 µM	3.76 µM				
C=C1CCC2CC1C(C(=O)c1c[nH]c3ccccc13)=NC2(C)C (stereo not given)		> 100 µM		> 100 µM		> 100		> 100 µM	> 100			
COc1cc(/C=C/C(=O)c2cccc3ccccc23)cc(OC)c1OC										23.9	10.3 µM	20.5
COC(=O)C(C(=O)C(=O)Nc1ccc(C)cc1)c1nc2ccc([N+](=O)[O-])cc2[nH]c1=O (stereo not given)										> 100	> 100 µM	> 100
CCN(C(=O)N1CCN(c2cc3c(cc2F)c(=O)c(C(=O)O)cn3C2CC2)CC1)c1nc(-c2ccccc2)cs1	2.11 µM	5.92 µM	2.87 µM	11.6 µM	2.74 µM	> 100	2.57 µM	> 100 µM				
Cc1nnc(C[C@@H]2C=C(c3ccc(Cl)cc3)c3ccccc3-n3c(C)nnc32)o1	1.5 µM	> 100 µM	0.858 µM	55.9 µM	3.53 µM	> 100	0.719 µM	> 92.7 µM				
CC1=C(C(=O)Nc2cccc(Cl)c2)C(c2ccccc2O)C(C(=O)Nc2cccc(Cl)c2)=C(C)N1											39.3 µM	
COC(=O)C(=O)C(CC(=O)Nc1cc(Cl)ccc1Cl)C(=O)OC (stereo not given)										> 100	> 100 µM	
CC(=O)N[C@H](C)[C@@H](O)[C@@H](C)[C@@H]1OC(=O)/C=C/C=C(C)\C=C\[C@]2(C)C[C@@H](NS(C)(=O)=O)C=C[C@@H]2/C=C(C)/C=C/[C@H]1C	0.00125 µM and 0.0046 µM		0.00268 µM and 0.00435 µM	> 43.5 µM	0.00714 µM and 0.0129 µM	> 43.5	0.00343 µM and 0.00506 µM	> 43.5 µM				
N#C/C(=C\c1ccc(O)c(O)c1)C(=O)NCc1ccc(C(F)(F)F)cc1	2.08 µM	18.1 µM	5.69 µM	29.4 µM	30.1 µM	> 100	8.72 µM	59.8 µM				
NC(N)=NN=c1c(=O)c2ccccc2c1=O	16 µM	33.7 µM	1.95 µM	3.71 µM	12.7 µM	29.8	23.5 µM	50.4 µM				
O=C1OC(CC(=O)c2ccc(F)cc2)C(Cl)=C1Cl (stereo not given)											31.9 µM	46.8
